Values quoted from earlier work, collected in patent publication US6803060B2, “Composition to boost libido” (priority 2000, dated 2004).

Legend:
corpus cavernosum = details: for erection after injection into the corpus cavernosum: injected directly into the corpus cavernosum with a hypodermic needle; for duration of erection after injection: intracavernosal injection, appropriate dose
impotentia erectionis = details: buccal, 100 I.U. three times a day for 14 days
[1] = system: male erectile dysfunction; details: alone or in combination with papaverine
impotent men = details: ingestion

CCN(CC)CCOC(=O)C(Cc1cccc2ccccc12)CC1CCCO1 (mixture of isomers) [naftidrofuryl]
erection after injection into the corpus cavernosum (corpus cavernosum): caused erection

CN(C)CCCN1c2ccccc2CCc2ccccc21 [imipramine]
erection after injection into the corpus cavernosum (corpus cavernosum): caused erection

CC[C@H](C)[C@@H]1NC(=O)[C@H](Cc2ccc(O)cc2)NC(=O)[C@@H](N)CSSC[C@@H](C(=O)N2CCC[C@H]2C(=O)N[C@@H](CC(C)C)C(=O)NCC(N)=O)NC(=O)[C@H](CC(N)=O)NC(=O)[C@H](CCC(N)=O)NC1=O [oxytocin]
patients with improvement of impotentia erectionis (impotentia erectionis): 12 of the 16

COc1ccc(Cc2nccc3cc(OC)c(OC)cc23)cc1OC [papaverine]
erection after injection into the corpus cavernosum (corpus cavernosum): caused erection
duration of erection after injection (corpus cavernosum): unrelenting erection lasting for hours

CC(COc1ccccc1)N(CCCl)Cc1ccccc1 (stereo not shown) [phenoxybenzamine]
erection after injection into the corpus cavernosum (corpus cavernosum): caused erection
duration of erection after injection (corpus cavernosum): unrelenting erection lasting for hours

Cc1ccc(N(CC2=NCCN2)c2cccc(O)c2)cc1 [phentolamine]
erection after injection into the corpus cavernosum (corpus cavernosum): caused erection

CCCCC[C@H](O)/C=C/[C@H]1[C@H](O)CC(=O)[C@@H]1CCCCCCC(=O)O [prostaglandin E1]
erectile response [1]: improved erectile response

CC(=O)Oc1cc(C(C)C)c(OCCN(C)C)cc1C [thymoxamine]
erection after injection into the corpus cavernosum (corpus cavernosum): caused erection

COc1ccc(CCN(C)CCCC(C#N)(c2ccc(OC)c(OC)c2)C(C)C)cc1OC (stereo not shown) [verapamil]
erection after injection into the corpus cavernosum (corpus cavernosum): caused erection

COC(=O)[C@@H]1[C@H]2C[C@H]3c4[nH]c5ccccc5c4CCN3C[C@@H]2CC[C@@H]1O [yohimbine]
treated patients reporting complete satisfaction (impotent men): 5%
subjective improvement in erectile ability (impotent men; impotent men treated): 38%
